Reference: ChEMBL document CHEMBL4308864, “Targeting tyrosine kinase: Development of acridone - pyrrole - oxindole hybrids against human breast cancer” (2019)

What was measured:
Type in all cases: functional
[1] = tested on: MDA-MB-231; experiment: Growth inhibition of human MDA-MB-231 cells assessed as cell growth at 10^-5 M incubated for 48 hrs by sulforhodamine B assay relative to control; settings: MDA-MB-231, 48 h, read-out: Activity
[2] = tested on: SF-295; experiment: Growth inhibition of human SF295 cells assessed as cell growth at 10^-5 M incubated for 48 hrs by sulforhodamine B assay relative to control; settings: SF-295, 48 h, read-out: Activity
[3] = tested on: HOP-92; experiment: Growth inhibition of human HOP92 cells assessed as cell growth at 10^-5 M incubated for 48 hrs by sulforhodamine B assay relative to control; settings: HOP-92, 48 h, read-out: Activity
[4] = tested on: SK-MEL-28; experiment: Growth inhibition of human SK-MEL-28 cells assessed as cell growth at 10^-5 M incubated for 48 hrs by sulforhodamine B assay relative to control; settings: SK-MEL-28, 48 h, read-out: Activity
[5] = tested on: HL-60(TB); experiment: Growth inhibition of human HL-60(TB) cells assessed as cell growth at 10^-5 M incubated for 48 hrs by sulforhodamine B assay relative to control; settings: HL-60, 48 h, read-out: Activity
[6] = tested on: TK-10; experiment: Growth inhibition of human TK10 cells assessed as cell growth at 10^-5 M incubated for 48 hrs by sulforhodamine B assay relative to control; settings: TK-10, 48 h, read-out: Activity
[7] = tested on: HCT-15; experiment: Growth inhibition of human HCT15 cells assessed as cell growth at 10^-5 M incubated for 48 hrs by sulforhodamine B assay relative to control; settings: HCT-15, 48 h, read-out: Activity
[8] = tested on: HT-29; experiment: Growth inhibition of human HT-29 cells assessed as cell growth at 10^-5 M incubated for 48 hrs by sulforhodamine B assay relative to control; settings: HT-29, 48 h, read-out: Activity
[9] = tested on: CAKI-1; experiment: Growth inhibition of human Caki1 cells assessed as cell growth at 10^-5 M incubated for 48 hrs by sulforhodamine B assay relative to control; settings: CAKI-1, 48 h, read-out: Activity
[10] = tested on: SK-OV-3; experiment: Growth inhibition of human SKOV3 cells assessed as cell growth at 10^-5 M incubated for 48 hrs by sulforhodamine B assay relative to control; settings: SK-OV-3, 48 h, read-out: Activity
[11] = tested on: MCF7; experiment: Growth inhibition of human MCF7 cells at 10^-5 M incubated for 48 hrs by sulforhodamine B assay relative to control; settings: MCF7, 48 h, read-out: GI
[12] = tested on: BT-549; experiment: Growth inhibition of human BT549 cells assessed as cell growth at 10^-5 M incubated for 48 hrs by sulforhodamine B assay relative to control; settings: BT-549, 48 h, read-out: Activity
[13] = tested on: SNB-75; experiment: Growth inhibition of human SNB75 cells assessed as cell growth at 10^-5 M incubated for 48 hrs by sulforhodamine B assay relative to control; settings: SNB-75, 48 h, read-out: Activity
[14] = tested on: A498; experiment: Growth inhibition of human A498 cells assessed as cell growth at 10^-5 M incubated for 48 hrs by sulforhodamine B assay relative to control; settings: A498, 48 h, read-out: Activity
[15] = tested on: M14; experiment: Growth inhibition of human M14 cells assessed as cell growth at 10^-5 M incubated for 48 hrs by sulforhodamine B assay relative to control; settings: M14, 48 h, read-out: Activity
[16] = tested on: SF-539; experiment: Growth inhibition of human SF539 cells assessed as cell growth at 10^-5 M incubated for 48 hrs by sulforhodamine B assay relative to control; settings: SF-539, 48 h, read-out: Activity
[17] = tested on: LOX IMVI; experiment: Growth inhibition of human LOXIMVI cells assessed as cell growth at 10^-5 M incubated for 48 hrs by sulforhodamine B assay relative to control; settings: read-out: Activity
[18] = tested on: T47D; experiment: Growth inhibition of human T47D cells at 10^-5 M incubated for 48 hrs by sulforhodamine B assay relative to control; settings: read-out: GI
[19] = tested on: Hs-578T; experiment: Growth inhibition of human Hs578T cells assessed as cell growth at 10^-5 M incubated for 48 hrs by sulforhodamine B assay relative to control; settings: read-out: Activity
[20] = tested on: EKVX; experiment: Growth inhibition of human EKVX cells assessed as cell growth at 10^-5 M incubated for 48 hrs by sulforhodamine B assay relative to control; settings: read-out: Activity
[21] = tested on: KM12; experiment: Growth inhibition of human KM12 cells assessed as cell growth at 10^-5 M incubated for 48 hrs by sulforhodamine B assay relative to control; settings: KM12, 48 h, read-out: Activity
[22] = tested on: CCRF-CEM; experiment: Growth inhibition of human CCRF-CEM cells assessed as cell growth at 10^-5 M incubated for 48 hrs by sulforhodamine B assay relative to control; settings: read-out: Activity
[23] = tested on: DU-145; experiment: Growth inhibition of human DU145 cells assessed as cell growth at 10^-5 M incubated for 48 hrs by sulforhodamine B assay relative to control; settings: DU-145, 48 h, read-out: Activity
[24] = tested on: NCI-H226; experiment: Growth inhibition of human NCI-H226 cells assessed as cell growth at 10^-5 M incubated for 48 hrs by sulforhodamine B assay relative to control; settings: NCI-H226, 48 h, read-out: Activity
[25] = tested on: UO-31; experiment: Growth inhibition of human UO31 cells assessed as cell growth at 10^-5 M incubated for 48 hrs by sulforhodamine B assay relative to control; settings: UO-31, 48 h, read-out: Activity
[26] = tested on: MDA-MB-468; experiment: Growth inhibition of human MDA-MB-468 cells at 10^-5 M incubated for 48 hrs by sulforhodamine B assay relative to control; settings: MDA-MB-468, 48 h, read-out: GI
[27] = tested on: 786-0; experiment: Growth inhibition of human 786-0 cells assessed as cell growth at 10^-5 M incubated for 48 hrs by sulforhodamine B assay relative to control; settings: 786-0, 48 h, read-out: Activity
[28] = tested on: COLO 205; experiment: Growth inhibition of human COLO205 cells assessed as cell growth at 10^-5 M incubated for 48 hrs by sulforhodamine B assay relative to control; settings: COLO 205, 48 h, read-out: Activity
[29] = tested on: UACC-62; experiment: Growth inhibition of human UACC62 cells assessed as cell growth at 10^-5 M incubated for 48 hrs by sulforhodamine B assay relative to control; settings: UACC-62, 48 h, read-out: Activity
[30] = tested on: NCI-H322M; experiment: Growth inhibition of human NCI-H322M cells assessed as cell growth at 10^-5 M incubated for 48 hrs by sulforhodamine B assay relative to control; settings: read-out: Activity
[31] = tested on: OVCAR-8; experiment: Growth inhibition of human OVCAR8 cells assessed as cell growth at 10^-5 M incubated for 48 hrs by sulforhodamine B assay relative to control; settings: OVCAR-8, 48 h, read-out: Activity
[32] = tested on: NCI/ADR-RES; experiment: Growth inhibition of human NCI/ADR-RES cells assessed as cell growth at 10^-5 M incubated for 48 hrs by sulforhodamine B assay relative to control; settings: read-out: Activity
[33] = tested on: MDA-MB-435; experiment: Growth inhibition of human MDA-MB-435 cells assessed as cell growth at 10^-5 M incubated for 48 hrs by sulforhodamine B assay relative to control; settings: MDA-MB-435, 48 h, read-out: Activity

Structure (SMILES)	growth at 10 µM [1]	growth at 10 µM [2]	growth at 10 µM [3]	growth at 10 µM [4]	growth at 10 µM [5]	growth at 10 µM [6]	growth at 10 µM [7]	growth at 10 µM [8]	growth at 10 µM [9]	growth at 10 µM [10]	inhibition of growth at 10 µM [11]	growth at 10 µM [12]	growth at 10 µM [13]	growth at 10 µM [14]	growth at 10 µM [15]	growth at 10 µM [16]	growth at 10 µM [17]	inhibition of growth at 10 µM [18]	growth at 10 µM [19]	growth at 10 µM [20]	further results
O=C1Nc2ccccc2/C1=C/c1cccn1CCCCn1c2ccccc2c(=O)c2ccccc21	64.7%	101%	59.5%	105%	60.2%	104%	31.7%	89.1%	69.5%	94.6%	96%	74.5%	78%	109%	85.1%	93%	82.5%	95%	86.3%	86.1%	growth at 10 µM [21]: 13%; growth at 10 µM [22]: 52.8%; growth at 10 µM [23]: 94.2%; growth at 10 µM [24]: 75.2%; growth at 10 µM [25]: 49.6%; inhibition of growth at 10 µM [26]: 49%; growth at 10 µM [27]: 97%; growth at 10 µM [28]: 69.8%; growth at 10 µM [29]: 51.8%; growth at 10 µM [30]: 101%; growth at 10 µM [31]: 58.8%; growth at 10 µM [32]: 73.9%; growth at 10 µM [33]: 92.7%
O=C1NC(=O)C(=Cc2cccn2CCCCCCn2c3ccccc3c(=O)c3ccccc32)C(=O)N1	94.6%	97.6%	85%	111%	91.3%	126%	90.3%	105%	92.8%	99.8%	24%	93.9%	107%	93.1%	94.4%	107%	89.7%	25%	106%	100%	growth at 10 µM [21]: 97.1%; growth at 10 µM [22]: 93.8%; growth at 10 µM [23]: 103%; growth at 10 µM [24]: 89.5%; growth at 10 µM [25]: 70.3%; inhibition of growth at 10 µM [26]: 5%; growth at 10 µM [27]: 97.9%; growth at 10 µM [28]: 105%; growth at 10 µM [29]: 82.1%; growth at 10 µM [30]: 94.1%; growth at 10 µM [31]: 93%; growth at 10 µM [32]: 92.9%; growth at 10 µM [33]: 102%
O=C1NC(=O)C(=Cc2cccn2CCCCn2c3ccccc3c(=O)c3ccccc32)C(=O)N1	82.5%	78.5%	86.1%	95.8%	60.1%	92.4%	81.4%	90.2%	82.9%	100%	43%	88.1%	92.6%	88.1%	82.5%	85.4%	82.6%	43%	85.1%	100%	growth at 10 µM [21]: 74.3%; growth at 10 µM [22]: 64.1%; growth at 10 µM [23]: 92.2%; growth at 10 µM [24]: 88.7%; growth at 10 µM [25]: 63.4%; inhibition of growth at 10 µM [26]: 40%; growth at 10 µM [27]: 86.6%; growth at 10 µM [28]: 100%; growth at 10 µM [29]: 66.1%; growth at 10 µM [30]: 97.3%; growth at 10 µM [31]: 86.4%; growth at 10 µM [32]: 88.4%; growth at 10 µM [33]: 79.9%
